Data on 63 compounds can be found in ChEMBL document CHEMBL1125793 (J Med Chem, 1991).

This assay deals with T1, Angiotensin II receptor (Rattus norvegicus, UniProt P29089+P25095+P35351).
T1 sequence (P29089 whole entry): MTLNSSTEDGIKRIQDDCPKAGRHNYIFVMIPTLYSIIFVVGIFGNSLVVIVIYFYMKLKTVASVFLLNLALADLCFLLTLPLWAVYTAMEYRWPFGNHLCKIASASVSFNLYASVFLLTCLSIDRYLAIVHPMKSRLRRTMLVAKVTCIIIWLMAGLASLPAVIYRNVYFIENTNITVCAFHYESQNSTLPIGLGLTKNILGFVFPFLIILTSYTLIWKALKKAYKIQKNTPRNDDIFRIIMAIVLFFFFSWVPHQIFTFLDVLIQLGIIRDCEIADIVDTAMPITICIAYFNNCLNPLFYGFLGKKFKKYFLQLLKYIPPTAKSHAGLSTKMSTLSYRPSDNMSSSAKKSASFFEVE
T1 sequence (P25095 whole entry): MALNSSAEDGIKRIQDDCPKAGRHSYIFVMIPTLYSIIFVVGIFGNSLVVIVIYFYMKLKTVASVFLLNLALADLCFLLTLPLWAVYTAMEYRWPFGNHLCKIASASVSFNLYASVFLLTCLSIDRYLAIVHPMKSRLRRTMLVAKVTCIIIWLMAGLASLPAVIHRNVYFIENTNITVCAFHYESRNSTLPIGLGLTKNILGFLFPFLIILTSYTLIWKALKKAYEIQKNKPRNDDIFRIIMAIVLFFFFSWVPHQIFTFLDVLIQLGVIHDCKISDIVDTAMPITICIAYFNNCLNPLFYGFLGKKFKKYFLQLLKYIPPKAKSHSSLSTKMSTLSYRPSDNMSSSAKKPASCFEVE
T1 sequence (P35351 whole entry): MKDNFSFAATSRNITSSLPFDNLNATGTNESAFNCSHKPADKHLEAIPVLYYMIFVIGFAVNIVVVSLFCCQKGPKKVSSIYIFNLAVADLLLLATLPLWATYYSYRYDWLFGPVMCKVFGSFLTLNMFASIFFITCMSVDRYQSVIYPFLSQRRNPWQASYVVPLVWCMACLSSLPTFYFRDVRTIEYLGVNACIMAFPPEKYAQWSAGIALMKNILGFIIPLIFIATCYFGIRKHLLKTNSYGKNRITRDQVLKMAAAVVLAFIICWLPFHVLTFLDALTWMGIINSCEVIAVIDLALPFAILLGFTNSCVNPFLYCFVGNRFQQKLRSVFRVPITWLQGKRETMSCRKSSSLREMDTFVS
Kind of assay: Binding affinity against Angiotensin II receptor, from rat adrenal gland. The class given is tissue-based.
The IC50 is the concentration that inhibits the measured activity by half. Compound `O=C(C(c1ccccc1)c1ccccc1)N1Cc2ncn(Cc3ccccc3)c2CC1CO` (stereo not drawn) registered an IC50 of 2100 nM.
On to `CN(Cc1ccccc1)C(=O)N1Cc2ncn(Cc3ccccc3)c2CC1C(=O)O` (stereo not drawn), for which the IC50 was determined as 4100 nM.
Under `O=C(O)C1Cc2c(ncn2Cc2ccccc2)CN1C(=O)OCc1ccccc1` (stereo in doubt; 7a) stands 4200 nM.
As to `Cc1cc(Cn2cnc3c2C[C@@H](C(=O)O)N(C(=O)C(c2ccccc2)c2ccccc2)C3)ccc1[N+](=O)[O-]`, the IC50 turned out to be 290 nM.
In turn, `COc1ccc(Cn2cnc3c2C[C@@H](C(=O)O)N(C(=O)CC2CCCCC2)C3)cc1C` returned an IC50 of 2000 nM.
With `CN(C(=O)N1Cc2ncn(Cc3ccccc3)c2CC1C(=O)O)c1ccccc1` (stereo in doubt; 3a) the figure was 1100 nM; with `O=C(O)[C@@H]1Cc2c(ncn2Cc2cccc(Cl)c2)CN1C(=O)C(c1ccccc1)c1ccccc1`, 1200 nM.
Turning to `O=C(O)C1Cc2ncn(Cc3ccccc3)c2CN1C(=O)/C=C/c1ccccc1` (stereo not drawn), the IC50 was 29000 nM.
With `COc1ccc(Cn2cnc3c2C[C@@H](C(=O)O)N(C(=O)C(c2ccc(C)cc2)c2ccc(C)cc2)C3)cc1C` the figure was 510 nM.
With `O=C(Cc1ccccc1)N1Cc2ncn(Cc3ccccc3)c2CC1CO` (stereo not drawn) the figure was 5200 nM; with `O=C(O)[C@@H]1Cc2c(ncn2Cc2ccc3ccccc3c2)CN1C(=O)C(c1ccccc1)c1ccccc1`, 270 nM; with `O=C(O)C1Cc2c(ncn2Cc2ccccc2)CN1C(=O)/C=C/c1ccccc1` (stereo not drawn), 2500 nM.
For `COc1ccc(Cn2cnc3c2C[C@@H](C(=O)O)N(C(=O)C(c2ccccc2)c2ccccc2)C3)cc1`, the IC50 came out at 290 nM.
Turning to `COc1ccc(Cn2cnc3c2C[C@@H](C(=O)O)N(C(=O)C(c2ccc(F)cc2)c2ccc(F)cc2)C3)cc1C`, the IC50 was 2300 nM.
Under `COC(=O)C1Cc2c(ncn2Cc2ccc(N(C)C)c(C)c2)CN1C(=O)C(c1ccccc1)c1ccccc1` (stereo not drawn) stands 350 nM; under `Cc1cc(Cn2cnc3c2C[C@H](C(=O)O)N(C(=O)C(c2ccccc2)c2ccccc2)C3)ccc1N(C)C.O`, 97 nM.
Compound `COc1ccc(C(C(=O)N2Cc3ncn(Cc4ccc(OC)c(C)c4)c3C[C@H]2C(=O)O)c2ccc(OC)cc2)cc1` gave an IC50 of 2000 nM.
With `Cc1ccc(C(C(=O)N2Cc3ncn(Cc4ccccc4)c3CC2C(=O)O)c2ccc(C)cc2)cc1` (stereo not drawn) the figure was 1300 nM.
Turning to `O=C(O)C1Cc2c(ncn2Cc2ccccc2)CN1C(=O)NCc1ccccc1` (stereo not drawn), the IC50 came to 11000 nM.
With `O=C(O)C1Cc2c(ncn2Cc2ccccc2)CN1C(=O)COc1ccccc1` (stereo not drawn) the figure was 4000 nM.
As to `COc1ccc(Cn2cnc3c2C[C@@H](C(=O)O)N(C(=O)Cc2ccccc2)C3)cc1C`, the IC50 was 530 nM.
`O=C(O)C1Cc2c(ncn2Cc2ccccc2)CN1C(=O)C(c1ccccc1)c1ccccc1` (stereo in doubt; 18) gave an IC50 of 1000 nM.
In the case of `CC(=O)Nc1ccc(Cn2cnc3c2C[C@@H](C(=O)O)N(C(=O)C(c2ccccc2)c2ccccc2)C3)cc1C`, the IC50 is 89 nM.
For the compound `O=C(O)C1Cc2c(ncn2Cc2ccccc2)CN1C(=O)C(c1ccccc1)C1CCCC1` (stereo not drawn), the IC50 is 71 nM.
Under `O=C(O)C1Cc2c(ncn2Cc2ccccc2)CN1C(=O)C(c1ccc([N+](=O)[O-])cc1)c1ccc([N+](=O)[O-])cc1` (stereo not drawn) stands 13000 nM; under `O=C(O)[C@@H]1Cc2c(ncn2C(c2ccccc2)c2ccccc2)CN1C(=O)C(c1ccccc1)c1ccccc1`, 110 nM.
Under `O=C(C(c1ccccc1)c1ccccc1)N1CCc2c(ncn2Cc2ccccc2)C1` stands 6100 nM; under `CN(C(=O)N1Cc2ncn(Cc3ccccc3)c2CC1C(=O)O)c1ccccc1` (stereo in doubt; 3), 1200 nM; under `O=C(O)[C@@H]1Cc2c(ncn2Cc2cccc(Br)c2)CN1C(=O)C(c1ccccc1)c1ccccc1`, 650 nM.
With `COc1ccc(Cn2cnc3c2C[C@@H](C(=O)O)N(C(=O)C(c2ccccc2)C2CCCC2)C3)cc1C` (stereo partly drawn) the figure was 67 nM; with `COc1ccc(Cn2cnc3c2C[C@@H](C(=O)O)N(C(=O)/C=C\c2ccccc2)C3)cc1C`, 2200 nM; with `O.O=C(O)[C@@H]1Cc2c(ncn2CC2CCCCC2)CN1C(=O)C(c1ccccc1)c1ccccc1`, 340 nM.
As to `COc1ccc(C(C(=O)N2Cc3ncn(Cc4ccccc4)c3CC2C(=O)O)c2ccc(OC)cc2)cc1` (stereo not drawn), the IC50 amounted to 610 nM.
In the case of `O=C(O)[C@@H]1Cc2c(ncn2Cc2ccc(F)cc2)CN1C(=O)C(c1ccccc1)c1ccccc1`, the concentration for half-maximal inhibition (IC50) was found to be 450 nM.
In turn, `O=C(C(=O)N1Cc2ncn(Cc3ccccc3)c2CC1C(=O)O)c1ccccc1` (stereo not drawn) displayed an IC50 of 2400 nM.
For the compound `COc1ccc(Cn2cnc3c2C[C@@H](C(=O)O)N(C(=O)C(Cc2ccccc2)c2ccccc2)C3)cc1C` (stereo partly drawn), the IC50 amounted to 3500 nM.
Consider `CN(C)c1ccc(Cn2cnc3c2C[C@@H](C(=O)O)N(C(=O)C(c2ccccc2)c2ccccc2)C3)cc1`, for which the IC50 worked out at 85 nM.
`COc1ccc(C)cc1Cn1cnc2c1C[C@@H](C(=O)O)N(C(=O)C(c1ccccc1)c1ccccc1)C2` returned an IC50 of 720 nM.
With `O=C(O)[C@@H]1Cc2c(ncn2Cc2cccc(C(F)(F)F)c2)CN1C(=O)C(c1ccccc1)c1ccccc1` the figure was 460 nM; with `O=C(O)C1Cc2c(ncn2Cc2ccccc2)CN1C(=O)c1cccc2ccccc12` (stereo not drawn), 9800 nM; with `O=C(O)[C@@H]1Cc2c(ncn2Cc2ccc([N+](=O)[O-])cc2)CN1C(=O)C(c1ccccc1)c1ccccc1`, 610 nM.
Compound `CC(C)NC(=O)N1Cc2ncn(Cc3ccccc3)c2CC1C(=O)O` (stereo not drawn) had a concentration for half-maximal inhibition (IC50) of 21000 nM.
`CN(C(=O)N1Cc2ncn(Cc3ccccc3)c2CC1CO)c1ccccc1` (stereo not drawn) registered an IC50 of 1600 nM.
Under `Nc1ccc(Cn2cnc3c2C[C@@H](C(=O)O)N(C(=O)C(c2ccccc2)c2ccccc2)C3)cc1` stands 150 nM.
Under `O=C(O)C1Cc2c(ncn2Cc2ccccc2)CN1C(=O)Cc1ccccc1` (stereo in doubt; 14) stands 1400 nM; under `COC(=O)C1Cc2c(ncn2Cc2ccc([N+](=O)[O-])c(C)c2)CN1C(=O)C(c1ccccc1)c1ccccc1` (stereo not drawn), 5100 nM.
Under `Cc1cc(Cn2cnc3c2CC(CO)N(C(=O)C(c2ccccc2)c2ccccc2)C3)ccc1N(C)C` (stereo not drawn) stands 200 nM; under `COc1ccc(Cn2cnc3c2C[C@@H](C(=O)O)N(C(=O)C2(c4ccccc4)CCCC2)C3)cc1C`, 840 nM.
`O=C(O)C1Cc2c(ncn2Cc2ccccc2)CN1C(=O)OCc1ccccc1` (stereo in doubt; 7) registered a half-inhibitory concentration (IC50) of 14000 nM.
With `CC(c1ccccc1)n1cnc2c1C[C@@H](C(=O)O)N(C(=O)C(c1ccccc1)c1ccccc1)C2` (stereo partly drawn) the figure was 1100 nM.
Under `O=C(O)C1Cc2c(ncn2Cc2ccccc2)CN1C(=O)C(c1ccc(F)cc1)c1ccc(F)cc1` (stereo not drawn) stands 2100 nM; under `Cc1ccc(S(=O)(=O)N2Cc3ncn(Cc4ccccc4)c3CC2C(=O)O)cc1` (stereo not drawn), 4200 nM; under `COc1ccc(Cn2cnc3c2C[C@@H](C(=O)O)N(C(=O)C(C)(c2ccccc2)c2ccccc2)C3)cc1C`, 9500 nM.
With `COc1ccc(Cn2cnc3c2C[C@@H](C(=O)O)N(C(=O)CC24CC5CC(CC(C5)C2)C4)C3)cc1C` the figure was 28000 nM; with `Cc1cc(Cn2cnc3c2CC(CO)N(C(=O)C(c2ccccc2)c2ccccc2)C3)ccc1[N+](=O)[O-]` (stereo not drawn), 2000 nM; with `COc1ccc(Cn2cnc3c2C[C@@H](C(=O)O)N(C(=O)C(c2ccccc2)c2ccccc2)C3)cc1[N+](=O)[O-]`, 51 nM.
`Cc1cc(Cn2cnc3c2C[C@@H](C(=O)O)N(C(=O)C(c2ccccc2)c2ccccc2)C3)ccc1O`: the IC50 came out at 56 nM.
With `CCc1cc(Cn2cnc3c2C[C@@H](C(=O)O)N(C(=O)C(c2ccccc2)c2ccccc2)C3)ccc1OC` the figure was 50 nM.
With `CNC(=O)Nc1ccc(Cn2cnc3c2C[C@@H](C(=O)O)N(C(=O)C(c2ccccc2)c2ccccc2)C3)cc1C` the figure was 44 nM; with `O=C(O)[C@H]1Cc2c(ncn2Cc2ccccc2)CN1C(=O)C(c1ccccc1)c1ccccc1`, 1200 nM.
Under `Cc1cc(C)cc(Cn2cnc3c2C[C@@H](C(=O)O)N(C(=O)C(c2ccccc2)c2ccccc2)C3)c1` stands 140 nM.
On to `COc1ccc(Cn2cnc3c2C[C@@H](C(=O)O)N(C(=O)C2(c4ccccc4)CCCCC2)C3)cc1C`, for which the IC50 worked out at 110 nM.
Under `COc1ccc(Cn2cnc3c2C[C@@H](C(=O)O)N(C(=O)C(c2ccc([N+](=O)[O-])cc2)c2ccc([N+](=O)[O-])cc2)C3)cc1C` stands 13000 nM.
